# From PubChem BioAssay AID1996
# Non-standard residues stand in square brackets, D forms with d. Residues, ends and D or L forms follow the SMILES beside them. *: point of attachment. Tic = O=C(O)[C@@H]1Cc2ccccc2CN1; Boc = CC(C)(C)OC(=O)*
# Details: buffer; pH 7.4; 200.0 µM
row,SMILES,solubility kinetic [µg/mL]
1,Cc1ccc(CN2CCCN(Cc3ccccc3C)S2(=O)=O)cc1,0.5
2,Cc1cnc(C(=O)OCC(=O)c2ccc(F)c(F)c2)cn1,> 43.8
3,COc1cc(CN=Cc2c(O)n(C(C)(C)C)c(=O)[nH]c2=O)cc(OC)c1,2.8
4,Cc1cccc(NC(=O)NCCN2CCCCC2)c1,> 39.2
5,COc1cccc(C(=O)OCC(=O)NCCCc2ccccc2)c1,12.1
6,O=C(COC(=O)c1c(F)cccc1Cl)NC1CCCCC1,> 47.1
7,Cc1ccnc(NC(=O)c2ccc(C(=O)c3ccccc3)cc2)c1,25.8
8,CS(=O)(=O)c1ccc(Cl)c(C(=O)NCC2CCCCC2)c1,> 49.5
9,CCOC(=O)C1(CC2CC2)CCN(C(=O)c2ocnc2C)CC1,> 48.1
10,CN1CC(c2ccccc2)Oc2ccccc2C1=S (stereo unspecified),5.6
11,Cc1cccc(C(=O)OCC(=O)NC(C)CCc2ccccc2)c1O (stereo unspecified),< 0.7
12,Cc1c(C(=O)N2CCC[C@H]2C(N)=O)oc2c(F)cccc12,38.1
13,COc1cc(Cl)c(C)cc1NC(=O)CN1C(=O)C2CC=CCC2C1=O (stereo unspecified),> 54.4
14,CC(=O)NC(=S)Nc1ccc(NC(=O)c2cccnc2)cc1,10.2
15,COc1cccc(N2C(=O)C3C(C2=O)C3(c2ccccc2)c2ccccc2)c1 (stereo unspecified),6.3
16,Cc1ccc(NC(=O)CNC(C)c2ccccc2)cc1.Cl (stereo unspecified),> 45.7
17,Nc1ccc(S(=O)(=O)NCc2ccccn2)cc1,> 39.5
18,Cc1c(C(=O)NC2CCCCC2C)oc2ccccc12 (stereo unspecified),1.7
19,Fc1cccc(CNc2ncnc3cc(Cl)ccc23)c1F,3.8
20,COc1ccc(C)cc1NC(=O)CSCc1ccccc1C,8.6
21,CCCCN(Cc1cc2cccc(C)c2[nH]c1=O)S(C)(=O)=O,41
22,O=C(CNC(c1ccccc1)c1ccccc1)Nc1ccccc1F,< 0.4

row,SMILES,solubility kinetic [µg/mL]
1,Cc1ccc(C(=O)Nc2ccc(C(=O)N3CCCCC3C)cc2)cc1 (stereo unspecified),5.2
2,CC(C)(C)OC(=O)N1Cc2ccccc2C[C@H]1C(=O)N1CCC[C@H]1C(=O)O (Boc-[Tic]-Pro-OH),49.9
3,Cc1sc2ncnc(SCC(=O)NC(C)C(C)C)c2c1C (stereo unspecified),4.6
4,CC(C)N(C(=O)CSc1nc2ccccc2c(=O)[nH]1)C(C)C,46.4
5,O=C(Nc1cccc2c1CCCC2)c1ccccc1Br,< 0.7
6,CC(C)NC(=O)CNc1ccc(C(F)(F)F)cc1[N+](=O)[O-],13.4
7,CC(NC(=O)c1ccco1)c1nc(-c2ccccc2Cl)no1 (stereo unspecified),> 47.7
8,CCn1c(CCCNC(=O)c2ccco2)nc2ccccc21,42.1
9,Fc1ccccc1OCCn1c(=S)[nH]c2ccccc21,6
10,COc1ccc2[nH]c(C(=O)NCc3ccc4c(c3)OCO4)cc2c1,1.1
11,Cc1cc(Cl)ccc1NC(=S)NC(C)(C)C,28.3
12,CCn1c(C)nc2cc(C(=O)NNC(=O)CN(C)S(=O)(=O)c3ccc(NC(C)=O)cc3)ccc21,> 73
13,O=C1CCCN1CCCNS(=O)(=O)c1ccccc1,> 42.4
14,CCCCCCC1CCC(C(=O)N2CCOCC2)CC1 (stereo unspecified),10
15,c1ccc(-c2cc(-c3ccccc3)ncn2)cc1,4.6
16,COc1ccnc2c1c(=O)n(Cc1ccccc1Cl)c(=O)n2C,36
17,Cc1ccccc1CNC(=O)C1CCC(=O)N(C2CC2)C1 (stereo unspecified),36.8
18,O=C(Nc1ccccc1-c1ccccc1)c1ccccc1[N+](=O)[O-],16.8
19,O=C(CCCn1cc([N+](=O)[O-])cn1)N1CCCCC1,> 39.9
20,COc1cc(NC(=S)Nc2ccc(OC(F)F)cc2)cc(OC)c1,23.9
21,O=C(NCc1ccc(Cl)cc1)c1ccncc1,> 37
22,Cc1ccc(S(=O)(=O)NCc2ccncc2)c(C)c1C,34.7

row,SMILES,solubility kinetic [µg/mL]
1,O=C(Nc1ccc(F)cc1)C1COc2ccccc2O1 (stereo unspecified),39.8
2,Cc1ccccc1C(=O)Nc1ccccc1C(=O)NC1CC1,> 44.2
3,Cc1cc(C(=O)COC(=O)C2=COCCO2)c(C)n1-c1ccccc1,14.9
4,O=C(Nc1ccc(NC(=O)c2cccs2)cc1)c1cccs1,0.9
5,CC(CC(=O)OCC(=O)NC1CCS(=O)(=O)C1)c1ccccc1 (stereo unspecified),> 50.9
6,O=C(CNC(=O)C1CCCCC1)OCC(=O)c1ccc(Br)cc1,27.6
7,O=C(N/N=C/c1cccnc1)c1cccc(Cl)c1,> 39
8,Cl.O=C(CN1CCOCC1)c1ccc(Br)cc1,> 48.1
9,O=C(COC(=O)Cc1ccc(Cl)cc1)Nc1ccccc1F,20.8
10,CSc1ncccc1C(=O)N1CCN(C(=O)c2ccccc2)CC1,> 51.2
11,O=C(CSc1n[nH]c(=O)n1C1CC1)NCc1ccccc1Cl,> 50.8
12,On1c(-c2ccccc2)nc2ccccc21,> 31.5
13,Cc1cccc(OC(C)C(=O)NC2CCS(=O)(=O)C2)c1C (stereo unspecified),46.4
14,COc1ccc(OC)c(COC(=O)c2cccc(S(=O)(=O)N3CCCCC3)c2)c1,10.1
15,O=C(Nc1ccc2ccccc2c1)c1ccc(Br)o1,4.9
16,CC(=O)CCn1cc([N+](=O)[O-])nc1C,> 29.6
17,COc1ccc(-n2cc(-c3ccccc3)c3c(=S)nc[nH]c32)cc1,0.6
18,COc1ccc(CCNC(=O)Cc2cccs2)cc1OC,> 45.8
19,O=C(CC(c1ccccc1)c1cc(Cl)ccc1O)N1CCCC1 (stereo unspecified),> 49.5
20,FC(F)(F)c1cc(Nc2ccccc2)nc(-c2ccccn2)n1,2.9
21,Cc1ccnc(NC(=O)CCCc2c[nH]c3ccccc23)c1,4.3
22,CN(CC12CC3CC(CC(C3)C1)C2)C(=O)c1ccco1,37.8

row,SMILES,solubility kinetic [µg/mL]
1,CNC(=O)COC(=O)/C=C/c1nc2ccccc2s1,> 41.4
2,COc1ccc(Br)cc1CNCCc1ccc2c(c1)OCO2,52.3
3,Cc1cc(C(F)F)nn1CC(=O)NC1CCCC1,> 38.6
4,O=C(COC(=O)/C=C/c1ccccc1[N+](=O)[O-])Nc1ccc2[nH]c(=O)[nH]c2c1,10
5,Cc1ccnc2nc(NC(=O)c3ccco3)nn12,> 36.5
6,Cn1c(N)c(C(=O)COC(=O)c2cc(S(=O)(=O)N3CCOCC3)ccc2F)c(=O)n(C)c1=O,> 72.7
7,Cc1ccc(C#N)c(SCc2cccc(Br)c2)n1,< 0.3
8,Cc1ccc(C(=O)OCC(=O)N(C)c2ccccc2)c(C)c1,> 44.6
9,CC(C)c1ccc2nc(SCC(=O)NCC3CCCO3)c(C#N)cc2c1 (stereo unspecified),2.4
10,CC(=O)Nc1ccccc1OCc1cnc(Cl)s1,> 42.4
11,O=C(Nc1ccccc1C(=O)NC1CC1)c1ccccc1F,44.6
12,CCOC(=O)c1sc2nc(C)nc(NC3CCC(O)CC3)c2c1C (stereo unspecified),< 0.2
13,Cc1ccc2nc(NS(=O)(=O)c3cn(C)nc3C)sc2c1,> 48.4
14,CCOc1ccc(-c2c(C)n([O-])c3c([n+]2=O)CCCCC3)cc1,> 47.2
15,CN(C)C(=O)C#Cc1ccccc1,> 26
16,CCC(C)c1ccc(NC(=O)c2ccco2)cc1 (stereo unspecified),24.6
17,O=C(c1cccnc1Cl)N(Cc1ccccc1)Cc1ccccc1,39.5
18,N/C(=N\OC(=O)CC1CCCCC1)c1cccc(Br)c1,0.6
19,O=C(Nn1cnc2ccccc2c1=O)c1ccccc1F,> 42.5
20,O=C(O)/C=C/c1ccc(S(=O)(=O)NCc2cccnc2)cc1,> 47.8
